Patent US20230085307A1, “PYRIDAZINONE COMPOUND AND HERBICIDE” (NISSAN CHEMICAL CORPORATION, priority 2019, published 2023)

Columns and labels:
late watergrass = assay: Test Example 2: herbicidal activity, application during weed generation under submerged conditions (Table 17, symbol A); format: in vivo, late watergrass (Echinochloa oryzicola); conditions: AAH 320 g/ha; application during weed generation, submerged conditions
Outline: (§1)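 Alluvial soil in Wagner pots was flooded to 4 cm depth and sown with the three weeds together; pots were kept in a greenhouse at 25° C. to 30° C. At the one to two leaf stage, an emulsion formulation diluted in water to a set rate went onto the water surface; scored three weeks later.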

Japanese bulrush = assay: Test Example 2: herbicidal activity, application during weed generation under submerged conditions (Table 17, symbol B); format: in vivo, Japanese bulrush (Schoenoplectus juncoides); conditions: AAH 320 g/ha; application during weed generation, submerged conditions
Outline: as §1

barnyard grass [1] = assay: Test Example 3: herbicidal effect by foliage application, Wagner pot (Table 18, symbol H); format: in vivo, barnyard grass (Echinochloa crus-galli); conditions: 320 g/ha
Outline: (§2)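 Plants were sown in alluvial soil held under 0.1–0.5 cm standing water and grown 14 days in a greenhouse at 25–30 °C. An emulsifiable formulation, water-diluted to the set dose, was then sprayed onto the foliage, and effects were scored three weeks later using previously defined criteria.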

rice flat sedge = assay: Test Example 3: herbicidal effect by foliage application, Wagner pot (Table 18, symbol E); format: in vivo, rice flat sedge (Cyperus iria); conditions: 320 g/ha
Outline: as §2

southern crabgrass = assay: Test Example 4: herbicidal effect by soil treatment (Table 19, symbol F); format: in vivo, southern crabgrass (Digitaria ciliaris); conditions: amount of applied herbicide 320 g/ha
Outline: (§3)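 Seeds were sown in sterilized diluvial soil and covered with about 1.5 cm of soil. An emulsion formulation diluted with water to a predetermined herbicide amount was sprayed evenly onto the soil surface. Plants grew in a greenhouse at 25° C. to 30° C., and the effect was scored three weeks after application using criteria from an earlier test.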

green foxtail [2] = assay: Test Example 4: herbicidal effect by soil treatment (Table 19, symbol G); format: in vivo, green foxtail (Setaria viridis); conditions: amount of applied herbicide 320 g/ha
Outline: as §3

barnyard grass [3] = assay: Test Example 4: herbicidal effect by soil treatment (Table 19, symbol H); format: in vivo, barnyard grass (Echinochloa crus-galli); conditions: amount of applied herbicide 320 g/ha
Outline: as §3

wild oat [4] = assay: Test Example 4: herbicidal effect by soil treatment (Table 19, symbol I); format: in vivo, wild oat (Avena fatua); conditions: amount of applied herbicide 320 g/ha
Outline: as §3

Italian ryegrass [5] = assay: Test Example 4: herbicidal effect by soil treatment (Table 19, symbol K); format: in vivo, Italian ryegrass (Lolium multiflorum); conditions: amount of applied herbicide 320 g/ha
Outline: as §3

velvetleaf [6] = assay: Test Example 4: herbicidal effect by soil treatment (Table 19, symbol M); format: in vivo, velvetleaf (Abutilon theophrasti); conditions: amount of applied herbicide 320 g/ha
Outline: as §3

redroot pigweed [7] = assay: Test Example 4: herbicidal effect by soil treatment (Table 19, symbol N); format: in vivo, redroot pigweed (Amaranthus retroflexus); conditions: amount of applied herbicide 320 g/ha
Outline: as §3

lambsquarters = assay: Test Example 4: herbicidal effect by soil treatment (Table 19, symbol O); format: in vivo, lambsquarters (Chenopodium album); conditions: amount of applied herbicide 320 g/ha
Outline: as §3

chickweed [8] = assay: Test Example 4: herbicidal effect by soil treatment (Table 19, symbol P); format: in vivo, common chickweed (Stellaria media); conditions: amount of applied herbicide 320 g/ha
Outline: as §3

green foxtail [9] = assay: Test Example 5: herbicidal effect by foliage application, plastic box (Table 20, symbol G); format: in vivo, green foxtail (Setaria viridis); conditions: foliage application, 320 g/ha, three weeks after application
Outline: (§4)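 Plants sown in sterilized diluvial soil and grown 14 days in a greenhouse at 25° C to 30° C, then sprayed on the foliage with the compound's emulsion diluted in water to a predetermined herbicide amount. Injury to weeds and crops scored three weeks after application on a visual rating scale.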

wild oat [10] = assay: Test Example 5: herbicidal effect by foliage application, plastic box (Table 20, symbol I); format: in vivo, wild oat (Avena fatua); conditions: foliage application, 320 g/ha, three weeks after application
Outline: as §4

blackgrass = assay: Test Example 5: herbicidal effect by foliage application, plastic box (Table 20, symbol J); format: in vivo, blackgrass (Alopecurus myosuroides); conditions: foliage application, 320 g/ha, three weeks after application
Outline: as §4

Italian ryegrass [11] = assay: Test Example 5: herbicidal effect by foliage application, plastic box (Table 20, symbol K); format: in vivo, Italian ryegrass (Lolium multiflorum); conditions: foliage application, 320 g/ha, three weeks after application
Outline: as §4

windgrass = assay: Test Example 5: herbicidal effect by foliage application, plastic box (Table 20, symbol L); format: in vivo, windgrass (Apera spica-venti); conditions: foliage application, 320 g/ha, three weeks after application
Outline: as §4

velvetleaf [12] = assay: Test Example 5: herbicidal effect by foliage application, plastic box (Table 20, symbol M); format: in vivo, velvetleaf (Abutilon theophrasti); conditions: foliage application, 320 g/ha, three weeks after application
Outline: as §4

redroot pigweed [13] = assay: Test Example 5: herbicidal effect by foliage application, plastic box (Table 20, symbol N); format: in vivo, redroot pigweed (Amaranthus retroflexus); conditions: foliage application, 320 g/ha, three weeks after application
Outline: as §4

chickweed [14] = assay: Test Example 5: herbicidal effect by foliage application, plastic box (Table 20, symbol P); format: in vivo, common chickweed (Stellaria media); conditions: foliage application, 320 g/ha, three weeks after application
Outline: as §4

persian speedwell = assay: Test Example 5: herbicidal effect by foliage application, plastic box (Table 20, symbol R); format: in vivo, Persian speedwell (Veronica persica); conditions: foliage application, 320 g/ha, three weeks after application
Outline: as §4

SMILES | herbicidal effect rating, A: late watergrass (late watergrass) | herbicidal effect rating, B: Japanese bulrush (Japanese bulrush) | herbicidal effect on H (barnyard grass), rating 0-5 (barnyard grass [1]) | herbicidal effect on E (rice flat sedge), rating 0-5 (rice flat sedge) | herbicidal effect rating, F: southern crabgrass (southern crabgrass) | herbicidal effect rating, G: green foxtail (green foxtail [2]) | herbicidal effect rating, H: barnyard grass (barnyard grass [3]) | herbicidal effect rating, I: wild oat (wild oat [4]) | herbicidal effect rating, K: Italian ryegrass (Italian ryegrass [5]) | herbicidal effect rating, M: velvetleaf (velvetleaf [6]) | herbicidal effect rating, N: redroot pigweed (redroot pigweed [7]) | herbicidal effect rating, O: lambsquarters (lambsquarters) | herbicidal effect rating, P: chickweed (chickweed [8]) | herbicidal effect grade, G: green foxtail (green foxtail [9]) | herbicidal effect grade, I: wild oat (wild oat [10]) | herbicidal effect grade, J: blackgrass (blackgrass) | herbicidal effect grade, K: Italian ryegrass (Italian ryegrass [11]) | herbicidal effect grade, L: windgrass (windgrass) | herbicidal effect grade, M: velvetleaf (velvetleaf [12]) | herbicidal effect grade, N: redroot pigweed (redroot pigweed [13]) | further results
CCCC(=O)Oc1c(C)nn(C)c(=O)c1-c1c(-c2ccc(OC(C)C)cc2)sc2ccccc12 [1-021] | 2 (Herbicidal rate of 20% or more and less than 40%) | 3 (Herbicidal rate of 40% or more and less than 70%) | 5 (Herbicidal rate of 90% or more (almost completely withered)) | 5 (Herbicidal rate of 90% or more (almost completely withered)) | 0 (Herbicidal rate of 5% or less (almost no effect)) | 1 (Herbicidal rate of 5% or more and less than 20%) | 0 (Herbicidal rate of 5% or less (almost no effect)) | 0 (Herbicidal rate of 5% or less (almost no effect)) | 1 (Herbicidal rate of 5% or more and less than 20%) | 3 (Herbicidal rate of 40% or more and less than 70%) | 0 (Herbicidal rate of 5% or less (almost no effect)) | 0 (Herbicidal rate of 5% or less (almost no effect)) | 5 (Herbicidal rate of 90% or more (almost completely withered)) | 4 (Herbicidal rate of 70% or more and less than 90%) | 0 (Herbicidal rate of 5% or less (almost no effect)) | 1 (Herbicidal rate of 5% or more and less than 20%) | 3 (Herbicidal rate of 40% or more and less than 70%) | 0 (Herbicidal rate of 5% or less (almost no effect)) | 3 (Herbicidal rate of 40% or more and less than 70%) | 4 (Herbicidal rate of 70% or more and less than 90%) | herbicidal effect grade, P: chickweed (chickweed [14]): 5 (Herbicidal rate of 90% or more (almost completely withered)); herbicidal effect grade, R: persian speedwell (persian speedwell): 5 (Herbicidal rate of 90% or more (almost completely withered))
CCCCOc1ccc(-c2sc3ccccc3c2-c2c(O)c(C)nn(C)c2=O)cc1 [1-024] | 4 (Herbicidal rate of 70% or more and less than 90%) | 4 (Herbicidal rate of 70% or more and less than 90%) | 5 (Herbicidal rate of 90% or more (almost completely withered)) | 5 (Herbicidal rate of 90% or more (almost completely withered)) | 0 (Herbicidal rate of 5% or less (almost no effect)) | 0 (Herbicidal rate of 5% or less (almost no effect)) | 3 (Herbicidal rate of 40% or more and less than 70%) | 0 (Herbicidal rate of 5% or less (almost no effect)) | 0 (Herbicidal rate of 5% or less (almost no effect)) | 4 (Herbicidal rate of 70% or more and less than 90%) | 4 (Herbicidal rate of 70% or more and less than 90%) | 5 (Herbicidal rate of 90% or more (almost completely withered)) | 4 (Herbicidal rate of 70% or more and less than 90%) | 5 (Herbicidal rate of 90% or more (almost completely withered)) | 4 (Herbicidal rate of 70% or more and less than 90%) | 4 (Herbicidal rate of 70% or more and less than 90%) | 4 (Herbicidal rate of 70% or more and less than 90%) | 4 (Herbicidal rate of 70% or more and less than 90%) | 5 (Herbicidal rate of 90% or more (almost completely withered)) | 5 (Herbicidal rate of 90% or more (almost completely withered)) | herbicidal effect grade, P: chickweed (chickweed [14]): 5 (Herbicidal rate of 90% or more (almost completely withered)); herbicidal effect grade, R: persian speedwell (persian speedwell): 5 (Herbicidal rate of 90% or more (almost completely withered))
CCCC(=O)Oc1c(C)nn(C)c(=O)c1-c1c(-c2ccc(SC)cc2)sc2ccccc12 [1-037] | 0 (Herbicidal rate of 5% or less (almost no effect)) | 1 (Herbicidal rate of 5% or more and less than 20%) | 5 (Herbicidal rate of 90% or more (almost completely withered)) | 5 (Herbicidal rate of 90% or more (almost completely withered)) | 0 (Herbicidal rate of 5% or less (almost no effect)) | 5 (Herbicidal rate of 90% or more (almost completely withered)) | 2 (Herbicidal rate of 20% or more and less than 40%) | 0 (Herbicidal rate of 5% or less (almost no effect)) | 1 (Herbicidal rate of 5% or more and less than 20%) | 3 (Herbicidal rate of 40% or more and less than 70%) | 5 (Herbicidal rate of 90% or more (almost completely withered)) | 3 (Herbicidal rate of 40% or more and less than 70%) | 4 (Herbicidal rate of 70% or more and less than 90%) | 5 (Herbicidal rate of 90% or more (almost completely withered)) | 1 (Herbicidal rate of 5% or more and less than 20%) | 4 (Herbicidal rate of 70% or more and less than 90%) | 4 (Herbicidal rate of 70% or more and less than 90%) | 0 (Herbicidal rate of 5% or less (almost no effect)) | 5 (Herbicidal rate of 90% or more (almost completely withered)) | 5 (Herbicidal rate of 90% or more (almost completely withered)) | herbicidal effect grade, P: chickweed (chickweed [14]): 5 (Herbicidal rate of 90% or more (almost completely withered)); herbicidal effect grade, R: persian speedwell (persian speedwell): 5 (Herbicidal rate of 90% or more (almost completely withered))
